Source: US20210267739A1, “DEVICES AND METHODS FOR CONTINUOUS DRUG DELIVERY VIA THE MOUTH” (SynAgile Corporation, priority 2013, published 2021)

Experiments:
[1] = Vapor pressures of propellant liquids; type: physicochemical
Protocol: For propellant-driven pumps, it is preferred to use propellants whose pressure increases by less than about 80%, 60%, or 40% when the temperature is raised from 37° C. to 55° C. As examples, the pressure of Dupont Dymel HFC-134a (1,1,1,2-tetrafluoroethane) increases from 938 kPa (absolute) at 37° C. to 1,493 kPa (absolute) at 55° C., an increase of 59%. The pressure of Dupont Dymel HFC-227ea/P ([…]) increases from about 700 kPa (absolute) at 37° C. to 1,000 kPa (absolute) at 55° C., an increase of 42%. In order to minimize the effect of temperature fluctuations on the propellants, a number of methods can be employed. In one embodiment, an insulating material can be used to decrease the sensitivity to changes in ambient temperature by insulating the propellant and drug reservoirs with materials of low thermal conductivity. Materials such as closed cell neoprene foams, can be used in this embodiment. In another embodiment, a material with very low thermal conductivity can be utilized, such as a ceramic.

[2] = cited from earlier work; for Approximate Pressure, bars at 37° C.: vapor pressure of propellant liquid at 37° C.
[3] = in vivo; cited from earlier work
mouth of healthy subject [4] = type: in vivo
Protocol: The infusion was made into the cheek pouch of the lower left jaw, between the gum and the cheek. The pump infused the drug for 8 hours over a total period of 9 hours and 10 minutes.
The solution was infused using a Cane CronoPAR pump. […] The drug infusion was continuous, but was stopped during lunch for a period of 70 minutes. According to the manual, the Cane CronoPAR pump infuses the drug in boluses of 22 μL. […] Lodosyn tablets (25 mg carbidopa) were taken orally twice during the infusion period, for a total dose of 50 mg carbidopa.
The solution was infused in the cheek pouch of the lower right jaw, i.e., between the gum and the cheek.
(§1) The solution was infused using a Cane CronoPAR pump.
The infusion was made into the cheek pouch of the lower right jaw, between the gum and the cheek. The pump infused the drug for 5 hours and 45 minutes over a total period of 7 hours and 30 minutes.
The solution was infused using a Cane CronoPAR pump. […] Pump delivery was stopped during lunch for 1 hour 45 minutes for lunch. According to the manual, the Cane CronoPAR pump infuses the drug in boluses of 22 μL.
The same healthy subject infused into their mouth about 0.69 g LD and 0.07 g carbidopa, in 3.0 mL of 1.2M LD aqueous suspension, of unknown pH. The infusion was made into the cheek pouch of the lower right jaw, between the gum and the cheek. The pump infused the drug for 8 hours and 10 minutes over a total period of 9 hours and 5 minutes.
as §1

mouth of healthy subject [5] = assay: Salivation and swallowing during intra-oral infusion; type: in vivo, human
Protocol: The subject recorded the number of times that they swallowed over two five minute periods. They swallowed 10 and 11 times during these two five minute periods, equal to an average rate of 2.1 swallows per minute. By contrast, in two other 5 minute periods when the subject was not infusing the drug, they swallowed 6 times and 5 times, equal to an average rate of 1.1 swallows per minute.
During two five-minute periods the subject recorded the number of times that they swallowed during the infusion. They swallowed 6 times during each of these two five minute periods, equal to an average rate of 1.2 swallows per minute. This is consistent with the previously measured rate of 1.1 swallows per minute observed when not infusing a drug and is half the 2.1 swallows per minute rate the subject observed when infusing LDEE.

**Q.** With `FCC(F)(F)F` [1,1,1,2 tetrafluoroethane] as the molecule, how does the “increase of pressure from 37° C. to 55° C.” value [1] read?
**A.** The value was 59%.

**Q.** And the “pressure (absolute) at 37° C.” value [2]?
**A.** The value was 938 kPa.

**Q.** What about the “pressure (absolute) at 55° C.” value [2] of the same molecule?
**A.** Its value is 1,493 kPa.

**Q.** And the “Approximate Pressure, bars at 37° C.” value [2]?
**A.** The value was 9.3 bars.

**Q.** For `FC(C(F)(F)F)C(F)(F)F` [1,1,1,2,3,3,3 heptafluoropropane], which “increase of pressure from 37° C. to 55° C.” value [1] is on record?
**A.** The value was 42%.

**Q.** What about the “pressure (absolute) at 37° C.” value [2] of the same molecule?
**A.** Its value is “about 700 kPa”.

**Q.** And the “pressure (absolute) at 55° C.” value [2]?
**A.** Its value is 1,000 kPa.

**Q.** And the “Approximate Pressure, bars at 37° C.” value [2]?
**A.** The value was 4.6 bars.

**Q.** With `FC(F)(F)CC(F)(F)F` [1,1,1,3,3,3 hexafluoropropane] as the molecule, how does the “Approximate Pressure, bars at 37° C.” value [2] read?
**A.** Its value is 4.0 bars.

**Q.** With `CC(F)F` [1,1-difluoroethane] as the molecule, how does the “Approximate Pressure, bars at 37° C.” value [2] read?
**A.** Its value is 8.4 bars.

**Q.** Which “Approximate Pressure, bars at 37° C.” value [2] does the source give for `FCCF` [1,2-difluoroethane] here?
**A.** The value was 1.9 bars.

**Q.** For `CCCCF` [1-fluorobutane], which “Approximate Pressure, bars at 37° C.” value [2] is on record?
**A.** The value was 1.3 bars.

**Q.** For `CCCF` [1-fluoropropane], which “Approximate Pressure, bars at 37° C.” value [2] is on record?
**A.** The value was 4.1 bars.

**Q.** With `CCC(C)F` (stereo not drawn) [2-fluorobutane] as the molecule, how does the “Approximate Pressure, bars at 37° C.” value [2] read?
**A.** Its value is 1.6 bars.

**Q.** Which “Approximate Pressure, bars at 37° C.” value [2] does the source give for `CC(C)F` [2-fluoropropane] here?
**A.** Its value is 5 bars.

**Q.** Which plasma half-life [3] does the source give for `CCN(CC)C(=O)/C(C#N)=C/c1cc(O)c(O)c([N+](=O)[O-])c1` [Entacapone] here?
**A.** Its plasma half-life is 0.4 to 0.7 h.

**Q.** Which “Approximate Pressure, bars at 37° C.” value [2] does the source give for `C=CCC` [Example 1-butene, 1-butene] here?
**A.** The value was 4.2 bars.

**Q.** With `CC=CC` [Example 2-butene, 2-butene] as the molecule, how does the “Approximate Pressure, bars at 37° C.” value [2] read?
**A.** The value was 3.2 bars.

**Q.** Which “condition of the mouth post-infusion” value (mouth of healthy subject [4]; 24 hours post-infusion) does the source give for `CCOC(=O)[C@@H](N)Cc1ccc(O)c(O)c1` [LDEE, levodopa ethyl ester] here?
**A.** The value was “dead, grey, peeling skin”.

**Q.** What about the tooth hypersensitivity (mouth of healthy subject [4]; during or after infusion, healthy subject) of the same molecule?
**A.** The tooth hypersensitivity was “hypersensitivity at the gum line of one tooth”.

**Q.** What about the “time post-infusion at which the tissue appears normal” value (mouth of healthy subject [4]; healthy subject) of the same molecule?
**A.** The value was 4 days.

**Q.** And the “irritation or discomfort in the mouth during the infusion” value (mouth of healthy subject [4]; infusion into cheek pouch, healthy subject)?
**A.** The value was “no irritation or discomfort in the mouth”.

**Q.** And the stimulation of salivation (mouth of healthy subject [5]; during infusion)?
**A.** Its stimulation of salivation is “stimulated in the subject salivation”.

**Q.** And the “average rate of swallowing during infusion” value (mouth of healthy subject [5]; two five minute periods)?
**A.** Its value is 2.1 swallows per minute.

**Q.** Which plasma half-life [3] does the source give for `Cc1ccc(C(=O)c2cc(O)c(O)c([N+](=O)[O-])c2)cc1` [Tolcapone] here?
**A.** Its plasma half-life is 2 to 3 h.

**Q.** For `CCCC` [butane], which “Approximate Pressure, bars at 37° C.” value [2] is on record?
**A.** Its value is 3.5 bars.

**Q.** Which “Approximate Pressure, bars at 37° C.” value [2] does the source give for `CCOCC` [diethyl ether] here?
**A.** Its value is 1.1 bars.

**Q.** For `CCC(C)C` [isopentane], which “Approximate Pressure, bars at 37° C.” value [2] is on record?
**A.** Its value is 1.4 bars.

**Q.** With `CCOC` [methyl ethyl ether] as the molecule, how does the “Approximate Pressure, bars at 37° C.” value [2] read?
**A.** Its value is 3 bars.

**Q.** For `CC(C)(C)C` [neopentane], which “Approximate Pressure, bars at 37° C.” value [2] is on record?
**A.** Its value is 2.4 bars.

**Q.** Which “Approximate Pressure, bars at 37° C.” value [2] does the source give for `FC1(F)C(F)(F)C(F)(F)C1(F)F` [octafluorocyclobutane] here?
**A.** The value was 4.3 bars.

**Q.** With `CCC` [propane] as the molecule, how does the “Approximate Pressure, bars at 37° C.” value [2] read?
**A.** Its value is 12.8 bars.

**Q.** Which “Approximate Pressure, bars at 37° C.” value [2] does the source give for `C=CC` [propene] here?
**A.** The value was 15.5 bars.
